Measurements as given in patent US11613538B2, “Method of inhibiting or reducing a viral infection” (PTC Therapeutics, Inc., priority 2009, dated 2023).
Like-named read-outs stand apart in the source and are kept apart here.

What was measured:
RSV = RSV CPE protection assay in Vero cells; type: cell-based, respiratory syncytial virus
HCV genotype 1b replicon = assay: HCV subgenomic replicon assay, genotype 1b; type: cell-based; conditions: Hepatitis C virus
Dengue 2 = Dengue 2 CPE protection assay in Vero E6 cells; type: cell-based, dengue virus
Vero cells = conditions: monkey
cancer in patients = assay: Treatment of individual cancer patients (clinical parameters and tumor markers); type: in vivo, human; conditions: monotherapy, in words
Protocol: The arrow symbol represents the timepoint at which docetaxel was reduced to 60 mg/m2.

MDCK cells = conditions: dog
[1] = tested on: hypoxia-induced VEGF production in HeLa cells; assay: cells; type: cell-based, human
Adenovirus = Adenovirus CPE protection assay in HeLa cells; type: cell-based
MT-2 cells = assay: CC50 in MT-2 cells (antiviral assay panel); type: cell-based, human; conditions: HIV-1 assay line
[2] = Whole-body autoradiography: brain tissue plasma concentration ratios (blood-brain barrier penetration); type: in vivo, rats; conditions: in words
HCV genotype 2a replicon = assay: HCV subgenomic replicon assay, genotype 2a; type: cell-based; conditions: Hepatitis C virus
HIV-1 = HIV-1 CPE protection assay in MT-2 cells; type: cell-based
Protocol: Antiviral activity against HIV-1 is determined in a human cell line. […] The activity against HIV may also be tested in human peripheral blood mononuclear cells in cell culture.

[3] = Caki-1 xenograft study: body weight and clinical observations; type: in vivo, mice; conditions: Caki-1 study
From the text: Body Weight: The mice were weighed once per week.

Caki-1 cells = assay: Caki-1 renal cell carcinoma xenograft (VHL-positive), tumor volume; type: in vivo, mice; conditions: for Tumor size (mean±SD): PO
Protocol: The Caki-1 cell line expresses the von Hippel-Lindau (VHL) protein which acts as a tumor suppressor by promoting the rapid degradation of HIF-1α (hypoxia-inducible factor 1α) under normoxia. Under hypoxic conditions, HIF-1α is stabilized and activated by the inability of VHL to act resulting in increased transcription of VEGF that is responsible for the high vascularization of RCC (see Turcotte et al, 2003, Zimmer et al, 2004).
(§1) A total of 100 mice were injected, of which 60 were used in the study.
Groups were taken off study when the mean tumor volume in a group was 1300 mm^3 or more. Vehicle-treatment started on Day 0 and continued through Day 35. Compound #10-treatment started on Day 0 and continued through Day 52.
(§2) Tumors were measured twice per week using digital calipers.
[…] The median values were reported.

[4] = tested on: c-Myc expression in 786-O cells; assay: Western blot of protein expression in 786-O Renal Cancer Cell line (FIG. 7A); type: cell-based; conditions: different dose levels (1 μM and 10 μM), in words
From the text: The Vinculin, c-Myc, Survivin, ornithine decarboxylase (ODC), Cyclin D and pS6 mRNA are cap-dependent mRNAs that are considered difficult to translate. The blots for each mRNA shown were translated via a cap-independent manner with mTOR inhibition (Akt has been inactivated).

WNV = WNV CPE protection assay in Vero cells (MTS); type: cell-based, West Nile virus
Protocol: Antiviral activity of a Compound against WNV is tested in Vero cells by protection of virus induced cytopathic effects (i.e. cytoprotection measured as cell viability, IC50). The effect of a Compound on inhibition of virus induced cytopathic effects is determined using MTS (CellTiter) assay.

Vaccinia = assay: microbe, parasite or virus in culture; type: cell-based; conditions: Orthopoxvirus vaccinia, Vero C1008
[5] = 786-O xenograft study: body weight and clinical observations; conditions: 786-O study, in words
[6] = tested on: protein expression in RCC lines 786-0, 769-P and A498; assay: Western blot of protein expression in panel of RCC lines (786-0, 769-P and A498) (FIG. 8); type: cell-based; conditions: monotherapy at different μM dose levels; in words
Parainfluenza = Parainfluenza CPE protection assay in Vero cells; type: cell-based, parainfluenza virus
Influenza A = assay: microbe, parasite or virus in culture; type: cell-based, influenza virus
PV strain Mahoney = assay: microbe, parasite or virus in culture; type: cell-based, poliovirus
786-O cells = assay: 786-O renal cell carcinoma xenograft (VHL-negative), tumor volume; type: in vivo, mice; conditions: for Tumor size (mean±SD): PO
Protocol: Both sunitinib and rapamycin are used clinically for treatment of renal cancer.
as §1
Groups were taken off study when the mean tumor volume in a group was 1300 mm^3 or more. Vehicle-treatment started on Day 0 and continued through Day 57. Compound #10-treatment started on Day 0 and continued through Day 88.
as §2
The time to progression to reach a tumor volume 1000 mm^3 was calculated for each mouse. The median values were reported.

[7] = human respiratory syncytial virus, Vero

## COc1ccc([C@H]2c3[nH]c4ccc(Cl)cc4c3CCN2C(=O)Oc2ccc(Cl)cc2)cc1 (racemic) [Compound #10]
RSV; [7]
  IC50: 250 nM
  IC90: ≥ 160 nM
RSV; in words
  Activity against respiratory syncytial virus (RSV): potent activity
HCV genotype 1b replicon
  IC50: 1 nM
HCV genotype 1b replicon; read-out: average IC50
  IC50: 36 nM
Dengue 2; Dengue virus, Vero C1008, Dengue 2, (+) RNA, Vero E6, CPE protection
  IC50: > 1000 nM
Dengue 2; Dengue virus, Vero C1008, Dengue 2, Vero E6, CPE protection
  IC90: > 1000 nM
Dengue 2; at the doses tested, in words
  Activity against dengue: inactive
Vero cells
  CC50: > 1000 nM
Cancer in patients; patient having cholangiocarcinoma, after four previous therapeutic modalities
  Clinical outcome (FIG. 22): stabilization for a tumor marker
Cancer in patients; patient having chondrosarcoma, after one previous therapeutic modality
  Clinical outcome (FIG. 21): stabilization and reduction in a number of clinical parameters and tumor markers
Cancer in patients; patient having melanoma, after two previous therapeutic modalities
  Clinical outcome (FIG. 20): stabilization and reduction in a number of clinical parameters and tumor markers
Cancer in patients; patient having thyroid cancer, after three previous therapeutic modalities
  Clinical outcome (FIG. 19): stabilization and reduction in a number of clinical parameters and tumor markers
MDCK cells
  CC50: > 1000 nM
[1]
  Inhibition of stress-induced VEGF production (FIG. 1): inhibit stress-induced VEGF production
Adenovirus; at the doses tested, in words
  Inhibition of adenovirus: did not inhibit
Adenovirus; unidentified adenovirus, Adenovirus, DNA, HeLa, CPE protection
  IC50: > 1000 nM
Adenovirus; unidentified adenovirus, Adenovirus, HeLa, CPE protection
  IC90: > 1000 nM
MT-2 cells
  CC50: 4.1 nM
[2]
  Blood-brain barrier penetration: penetrates the blood-brain barrier
HCV genotype 2a replicon
  IC50: < 3 nM
HIV-1; Human immunodeficiency virus 1, MT2
  IC50: 22 nM
HIV-1; Human immunodeficiency virus 1, MT2, 72 h, human cell line, 3 days post-infection, normalized to cell number after treatment in the absence of infection, read-out: EC50, prevention of cytopathic effect
  EC50: 22 nM
[3]; Day 8 and Day 14
  Body weight loss from Day 0: 2.2%
[3]; all mice, in words
  Survival of treated mice: survived until sacrificed
[3]; in words
  Body weight change from initial body weight: transiently lost weight
Caki-1 cells
  Median time to reach 1500 mm^3: 39 days
Caki-1 cells; Compound #10 10 mg/kg QD PO, sunitinib 75 mg/kg QD PO, rapamycin 15 mg/kg PO
  Median time for tumors to reach 1000 mm^3: 39 days
Caki-1 cells; Day 35, 10 mg/kg QD
  Tumor size (mean±SD): 866±450 mm^3
Caki-1 cells; Day 35, Compound #10 10 mg/kg QD PO, sunitinib 75 mg/kg QD PO, rapamycin 15 mg/kg PO
  Tumors smaller than those in vehicle-treated mice: 44%
Caki-1 cells; Day 52, 10 mg/kg QD
  Tumor size (mean±SD): 1538±1070 mm^3
[4]
  Suppression of c-Myc expression (FIG. 7A): not completely effective in suppressing c-Myc expression
WNV; West Nile virus, WNV, (+) RNA, Vero, CPE protection
  IC50: 67 nM
WNV; West Nile virus, WNV, Vero, CPE protection
  IC90: 280 nM
WNV; in words
  Activity against West Nile virus (WNV): potent activity
Vaccinia
  IC50: 40 nM
  IC90: 80 nM
[5]; all mice
  Survival of treated mice: survived until sacrificed
[5]
  Body weight change from initial body weight: did not lose weight
[6]
  Effect on protein expression (FIG. 8): dose-dependent and depended on the RCC line used
Parainfluenza; Parainfluenza, (−) RNA, Vero, CPE protection
  IC50: 29 nM
Parainfluenza; Parainfluenza, Vero, CPE protection
  IC90: 44 nM
Parainfluenza; in words
  Activity against parainfluenza virus: potent activity
Influenza A
  Inhibition of influenza virus: did not exhibit any selective inhibition
Influenza A; Influenza A virus, MDCK
  IC50: > 1000 nM
  IC90: > 1000 nM
PV strain Mahoney; Enterovirus C, HeLa
  IC50: 0.57 nM
  IC90: 2.8 nM
PV strain Mahoney; Enterovirus C, HeLa, read-out: average IC50
  IC50: 0.6 nM
PV strain Mahoney; infected HeLa cells
  decrease in activity when added at the time of infection: 65 fold
Vero E6 cells; Dengue 2 assay line
  CC50: 700 nM
Vero E6 cells; Vaccinia assay line
  CC50: 83 nM
786-O cells; Compound #10 10 mg/kg QD PO, sunitinib 75 mg/kg QD PO, rapamycin 15 mg/kg PO, time on study used if not reached
  Median time for tumors to reach 1000 mm^3: 71 days
786-O cells; Day 57, 10 mg/kg QD
  Tumor size (mean±SD): 945±408 mm^3
786-O cells; Day 57, Compound #10 10 mg/kg QD PO, sunitinib 75 mg/kg QD PO, rapamycin 15 mg/kg PO
  Tumors smaller than those in vehicle-treated mice: 34%
786-O cells; Day 88, 10 mg/kg QD
  Tumor size (mean±SD): 1569±671 mm^3
786-O cells; Mouse 2-10, 10 mg/kg, in words
  Cure (tumor size <60 mm^3, not measurable): cured
